Read-outs that look alike come from different tables or passages of the source.
Legend:
[1] = Acute toxicity, oral, mice (LD50); conditions: in vivo, mouse, mortality at 72 hours, P = presumption
Procedure: a. DS male mice (20-25 g) are orally administered a suspension of test compound with gum arabic. The mortality at 72 hours is determined and the LD50 is calculated.

[2] = Acute toxicity, oral, rats (LD50); conditions: in vivo, rat, mortality on the 15th day
Procedure: b. JCL-Wistar female rats (180-220 g) are orally administered a suspension of test compound with gum arabic. The mortality on the 15th day is determined and the LD50 is calculated.

DS male mice = assay: Analgesic activity a: acetic acid writhing method; format: in vivo, mouse; conditions: read-out: Analgesic Activity a ED50
Procedure: a. Acetic acid writing method
DS male mice (20-23 g) are treated with an intraperitoneal injection of 0.1 ml/10 g of 0.6% acetic acid 30 minutes after oral administration of a test compound. The number of times of writhing for 10 minutes is counted and ED50 is calculated.

SLC-Wistar female rats [3] = assay: Analgesic activity c: Randall and Selitto method; format: in vivo, rat; conditions: 2 h, read-out: Analgesic Activity c ED50
Procedure: c. Randall and Selitto method A test compound is orally given SLC-Wistar female rats (150-170 g). Five minutes later 0.1 ml of 20% yeast suspension is subcutaneously injected into the plantar tissue of the foot.

SLC-Wistar female rats [4] = assay: Analgesic activity b: foot-licking method; format: in vivo, rat; conditions: read-out: Analgesic Activity b ED50
JCL-Wistar female rats = assay: Anti-inflammatory activity: carrageenin foot edema; format: in vivo; conditions: rat, oral, 50 mg/kg, 1.0% carrageenin, swelling 3 hours later
Procedure: A 0.9% saline solution (0.05 ml) containing 1.0% carrageenin is used as phlogistic agent. After 30 minutes JCL-Wistar female rats (180-200 g) are orally administered a test compound, the phlogistic agent is injected subcutaneously into the plantar of the foots of the rats. The volume of swelling is measured 3 hours later and anti-edema activity is determined by calculating the percentage ratio of the edematous volume of medicated foot of that of non-medicated foot.

[5] = mouse, oral, 30 min before 0.6% acetic acid i.p., writhing counted for 10 minutes
[6] = rat, oral, 5 min before 20% yeast s.c. in foot, pain threshold at 120 minutes
[7] = rat, oral, 30 min before 3.7% formaldehyde s.c. in hind-paw, foot-licking for 50 minutes

| Structure (SMILES) | LD50 at 72 h [1] [mg/kg] | LD50 at 360 h [2] [mg/kg] | ED50 (DS male mice; [5]) [mg/kg] | ED50 (SLC-Wistar female rats [3]; [6]) [mg/kg] | ED50 (SLC-Wistar female rats [4]; [7]) [mg/kg] | ED50 (DS male mice; Mus musculus, po) [mg/kg] | ED50 (SLC-Wistar female rats [3]; po) [mg/kg] | ED50 (SLC-Wistar female rats [4]; Rattus norvegicus, po) [mg/kg] | Anti-inflammatory Activity (JCL-Wistar female rats) [%] |
| --- | --- | --- | --- | --- | --- | --- | --- | --- | --- |
| COc1cc(C)nc(-n2nc(C)cc2OC)n1 [Mepirizole, reference compound] | 1150 | 552 | 110 | 130 | 13 | – | – | – | – |
| COc1ccc2c(c1)c(CC(=O)O)c(C)n2C(=O)c1ccc(Cl)cc1 [Idomethacin, reference compound] | 17 | 14 | – | – | – | 7 | 14 | 65 | – |
| CC(=O)n1c2c(c3ccccc31)C(CN(C)C)CCS2 (stereo not shown) [Comp. 4] | ~175 | – | 21 | 15.9 | 4.7 | – | – | – | 44 |
| CNCC1CCS(=O)(=O)c2[nH]c3ccccc3c21 (stereo not shown) [Comp. 3, 4-Methylaminomethyl-2,3,4,9-tetrahydrothiopyrano[2,3-b]indole S-dioxide] | ~750 | – | 11.7 | 19.1 | 2.9 | – | – | – | 25 |
| CNCC1CCSc2c1c1ccccc1n2C (stereo not shown) [Comp. 2, 9-Methyl-4-methylaminomethyl-2,3,4,9-tetrahydrothiopyrano[2,3-b]indole] | ~750 | – | 21.2 | 17.8 | 0.54 | – | – | – | 40 |
| CNCC1CCSc2[nH]c3ccccc3c21 (stereo not shown) [Comp. 1, 4-Methylaminomethyl-2,3,4,9-tetrahydrothiopyrano[2,3-b]indole] | 409 | 295 | 4.2 | 8.4 | 1.6 | – | – | – | 66 |
